In patent publication US20240246918A1, “COMPOUNDS AND COMPOSITIONS AS EIF4E INHIBITORS AND THE USES THEREOF” (Ribometrix, Inc., priority 2022, published 2024):
pIC50: −log10 of the molar value.

Assays:
[1] = test system: COLO 205 colorectal tumor cells; assay: Tumor cell viability inhibition assay (CellTiter-Glo 2.0, 72 hours); assay type: cell-based; details: Homo sapiens, COLO 205, 72 h, COLO 205 cell viability
In short: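 COLO 205 cells (1500/well, RPMI-1640 + 10% FBS) exposed for 72 h to an 11-point, 4-fold dilution series; cellular ATP read by CellTiter-Glo 2.0 luminescence. Data normalized to DMSO and maximum-inhibition controls; IC50 from 4-parameter curve fit.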

[2] = test system: cyclin D1 protein levels in COLO 205 cells; assay: Cyclin D1 cellular inhibition assay (HTRF, 6 hours); assay type: cell-based; details: Homo sapiens, COLO 205, 6 h, 6 hours of compound treatment, Cyclin D1 protein levels by HTRF, read-out: COLO 205 6 h Cyclin D1 TR-FRET IC50
Procedure: The effect of compound treatment on cyclin D1 protein levels in COLO 205 cells was assessed, as follows. Test compound plates were prepared with a Tecan D300e Digital Dispenser as 11-point concentration-response curves with a final DMSO concentration of 1%. COLO 205 (ATCC, CCL-222) colorectal tumor cells were seeded to assay-ready plates in RPMI-1640 medium supplemented with 10% FBS at 20,000 cells in a volume of 6 microliters per well. After 6 hours of compound treatment, cells were lysed and Cyclin D1 protein levels were assessed by an HTRF assay (PerkinElmer #64CYCD1ITPEG), according to the manufacturer's protocol. Time-resolved fluorescence was measured using a Clariostar Plus microplate reader (BMG Labtech) or equivalent. After normalization to the average of DMSO control and maximum inhibition control wells, concentration-response data were plotted and standard 4-parameter curve fitting (GraphPad Prism v9.4.1) was utilized to determine IC50 values.

human eIF4E protein = molecular target: T1, human eIF4E protein (Homo sapiens, UniProt P06730); assay: Biochemical competitive binding assay (TR-FRET competition, EDA-m7GDP-ATTO-647N probe); details: read-out: hEIF4E TR-FRET IC50
T1 construct: purchased Novus NBP-45314
In short: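 His-tagged human eIF4E (4 nM) was preincubated with Eu-anti-His antibody (2.5 nM) and added to compound (11-point, 4-fold dilutions) for 15 min. Then 5 nM EDA-m7GDP-ATTO-647N was added for 15 min, in HEPES pH 7.5, 100 mM KCl. The 665/620 TR-FRET ratio was normalized to controls, and IC50 was taken from 4-parameter fits.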

T1 sequence (P06730 whole entry): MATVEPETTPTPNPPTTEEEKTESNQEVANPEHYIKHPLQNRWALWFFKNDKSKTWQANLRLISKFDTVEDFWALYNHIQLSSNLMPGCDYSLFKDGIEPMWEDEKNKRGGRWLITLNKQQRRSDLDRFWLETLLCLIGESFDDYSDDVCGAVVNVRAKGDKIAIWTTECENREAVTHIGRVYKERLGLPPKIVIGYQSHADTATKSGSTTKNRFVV

pIC50 [1] | pIC50 [2] | pIC50 (human eIF4E protein) | Structure (SMILES)
< 4.70 | < 4.70 | > 7.00 | Cc1cc(-c2cc(Cl)ccc2OCCn2c(C)nc3c(c2=O)C[C@@H](N(C)[C@H]2CC[C@@](C)(O)CC2)CC3)c2scc(C(=O)NS(C)(=O)=O)c2n1 (single isomer, unassigned) [Compound 215]
< 4.70 | < 4.70 | > 7.00 | Cc1cc(-c2cc(Cl)ccc2OCCn2c(C)nc3c(c2=O)CC(N(C)Cc2ccnnc2)CC3)c2scc(C(=O)O)c2n1 (stereo not drawn) [Compound 188]
> 5.30 | > 5.30 | > 7.00 | Cc1cc(-c2cc(Cl)ccc2OCCn2c(C)nc3c(c2=O)CC(N(C)Cc2ccc(C(F)(F)F)cc2)CC3)c2scc(C(=O)O)c2n1 (stereo not drawn) [Compound 201, 7-(5-chloro-2-(2-(2-methyl-6-(methyl(4-(trifluoromethyl)benzyl)amino)-4-oxo-5,6,7,8-tetrahydroquinazolin-3(4H)-yl)ethoxy)phenyl)-5-methylthieno[3,2-b]pyridine-3-carboxylic acid]
> 5.30 | 4.70 to 5.30 | > 7.00 | Cc1cc(-c2cc(Cl)ccc2OCCn2c(C)nc3c(c2=O)CC(N(C)Cc2cncnc2)CC3)c2scc(C(=O)O)c2n1 (stereo not drawn) [Compound 187]
> 5.30 | > 5.30 | > 7.00 | COC1CCN(C2CCc3nc(C)n(CCOc4ccc(Cl)cc4-c4cc(C)nc5c(C(=O)NS(C)(=O)=O)csc45)c(=O)c3C2)CC1 (single isomer, unassigned) [Compound 239]
< 4.70 | < 4.70 | > 7.00 | Cc1cc(-c2cc(Cl)ccc2OCCn2c(C)nc3c(c2=O)CC(N2CCc4[nH]ncc4C2)CC3)c2scc(C(=O)O)c2n1 (stereo not drawn) [Compound 159]
> 5.30 | > 5.30 | > 7.00 | Cc1cc(-c2cc(Cl)ccc2OCCn2c(C)nc3c(c2=O)C[C@H](N(C)C[C@H]2C[C@H](C(F)(F)F)C2)CC3)c2scc(C(=O)O)c2n1 (single isomer, unassigned) [Compound 213]
> 5.30 | > 5.30 | > 7.00 | Cc1cc(-c2cc(Cl)ccc2OCCn2c(C)nc3c(c2=O)C[C@@H](N(C)C[C@H]2C[C@H](C(F)(F)F)C2)CC3)c2scc(C(=O)O)c2n1 (single isomer, unassigned) [Compound 221]
< 4.70 | < 4.70 | > 7.00 | Cc1cc(-c2cc(Cl)ccc2OCCn2c(C)nc3c(c2=O)C[C@@H](N(C)[C@H]2CC[C@](C)(O)CC2)CC3)c2scc(C(=O)NS(C)(=O)=O)c2n1 (single isomer, unassigned) [Compound 206]
> 5.30 | > 5.30 | > 7.00 | Cc1cc(-c2cc(Cl)ccc2OCCn2c(C)nc3c(c2=O)CC(N2CCC(OC(F)(F)F)CC2)CC3)c2scc(C(=O)O)c2n1 (stereo not drawn) [Compound 178]
4.70 to 5.30 | < 4.70 | 5.30 to 6.30 | COC1CCN(C2CCc3nc(C)n(CCOc4ccc(Cl)cc4-c4cc(C)nc5c(C(=O)NC6CC(F)(F)C6)csc45)c(=O)c3C2)CC1 (stereo not drawn) [Compound 144]
< 4.70 | < 4.70 | > 7.00 | Cc1cc(-c2cc(Cl)ccc2OCCn2c(C)nc3c(c2=O)CC(N2CCC(OCCO)CC2)CC3)c2scc(C(=O)O)c2n1 (stereo not drawn) [Compound 208]
< 4.70 | < 4.70 | > 7.00 | Cc1cc(-c2cc(Cl)ccc2OCCn2c(C)nc3c(c2=O)CC(N2CCC(C)(O)CC2)CC3)c2scc(C(=O)O)c2n1 (stereo not drawn) [Compound 209]
> 5.30 | > 5.30 | > 7.00 | Cc1cc(-c2cc(Cl)ccc2OCCn2c(C)nc3c(c2=O)CC(N(C)Cc2ccccn2)CC3)c2scc(C(=O)O)c2n1 (stereo not drawn) [Compound 200]
< 4.70 | < 4.70 | > 7.00 | Cc1cc(-c2cc(Cl)ccc2OCCn2c(C)nc3c(c2=O)C[C@H](N(C)[C@H]2CC[C@@](C)(O)CC2)CC3)c2scc(C(=O)NS(C)(=O)=O)c2n1 (single isomer, unassigned) [Compound 214]
> 5.30 | > 5.30 | > 7.00 | Cc1cc(-c2cc(Cl)ccc2OCCn2c(C)nc3c(c2=O)C[C@H](N(C)C[C@H]2C[C@@H](C(F)(F)F)C2)CC3)c2scc(C(=O)O)c2n1 (stereo in doubt) [Compound 223]
> 5.30 | > 5.30 | > 7.00 | Cc1cc(-c2cc(Cl)ccc2OCCn2c(C)nc3c(c2=O)C[C@@H](N2C[C@@H]4CCC(F)(F)[C@@H]4C2)CC3)c2scc(C(=O)O)c2n1 (single isomer, unassigned) [Compound 169]

pIC50 [1] | pIC50 [2] | pIC50 (human eIF4E protein) | Structure (SMILES)
> 5.30 | > 5.30 | > 7.00 | Cc1cc(-c2cc(Cl)ccc2OCCn2c(C)nc3c(c2=O)CC(N2CC4CCC(C4)C2)CC3)c2scc(C(=O)O)c2n1 (stereo not drawn) [Compound 176]
< 4.70 | < 4.70 | > 7.00 | Cc1cc(-c2cc(Cl)ccc2OCCn2c(C)nc3c(c2=O)CC(N2CC4(C2)CC(O)(C(F)(F)F)C4)CC3)c2scc(C(=O)O)c2n1 (stereo not drawn) [Compound 195]
4.70 to 5.30 | < 4.70 | > 7.00 | Cc1cc(-c2cc(Cl)ccc2OCCn2c(C)nc3c(c2=O)CC(N(C)Cc2cccc(N)n2)CC3)c2scc(C(=O)O)c2n1 (stereo not drawn) [Compound 173]
< 4.70 | < 4.70 | > 7.00 | Cc1cc(-c2cc(Cl)ccc2OCCn2c(C)nc3c(c2=O)C[C@H](N(C)C[C@H]2C[C@](C)(O)C2)CC3)c2scc(C(=O)O)c2n1 (relative stereo) [Compound 210]
4.70 to 5.30 | < 4.70 | 6.30 to 7.00 | COC1CCN(C2CCc3nc(C)n(CCOc4ccc(Cl)cc4-c4cc(C)nc5c(C(=O)NCC(F)F)csc45)c(=O)c3C2)CC1 (stereo not drawn) [Compound 142]
> 5.30 | > 5.30 | > 7.00 | Cc1cc(-c2cc(Cl)ccc2OCCn2c(C)nc3c(c2=O)CC(N(C)Cc2cccnc2)CC3)c2scc(C(=O)O)c2n1 (stereo not drawn) [Compound 196]
> 5.30 | > 5.30 | > 7.00 | COC1CCN(C2Cc3c(cc(C)n(CCOc4ccc(Cl)cc4-c4cc(C)nc5c(C(=O)O)csc45)c3=O)C3(CC3)C2)CC1 (stereo not drawn) [Compound 151]
> 5.30 | > 5.30 | > 7.00 | Cc1cc(-c2cc(Cl)ccc2OCCn2c(C)nc3c(c2=O)CC(N2CCC(C4CC(F)(F)C4)CC2)CC3)c2scc(C(=O)O)c2n1 (stereo not drawn) [Compound 156]
> 5.30 | > 5.30 | > 7.00 | Cc1cc(-c2cc(Cl)ccc2OCCn2c(C)nc3c(c2=O)CC(N2CCc4ncsc4C2)CC3)c2scc(C(=O)O)c2n1 (stereo not drawn) [Compound 164]
> 5.30 | > 5.30 | > 7.00 | COc1cc(CNC2CCc3nc(C)n(CCOc4ccc(Cl)cc4-c4cc(C)nc5c(C(=O)O)csc45)c(=O)c3C2)ccn1 (stereo not drawn) [Compound 154]
> 5.30 | > 5.30 | > 7.00 | Cc1cc(-c2cc(Cl)ccc2OCCn2c(C)nc3c(c2=O)C[C@H](N2CCC[C@@]4(C2)CC4(F)F)CC3)c2scc(C(=O)O)c2n1 (single isomer, unassigned) [Compound 139]
> 5.30 | > 5.30 | > 7.00 | Cc1cc(-c2cc(Cl)ccc2OCCn2c(C)nc3c(c2=O)CC(N(C)CC24CC(C2)C4)CC3)c2scc(C(=O)O)c2n1 (stereo not drawn) [Compound 205]
> 5.30 | > 5.30 | > 7.00 | Cc1cc(-c2cc(Cl)ccc2OCCn2c(C)nc3c(c2=O)C[C@@H](N2CCC[C@]4(C2)CC4(F)F)CC3)c2scc(C(=O)O)c2n1 (single isomer, unassigned) [Compound 140]
> 5.30 | > 5.30 | > 7.00 | Cc1cc(-c2cc(Cl)ccc2OCCn2c(C)nc3c(c2=O)C[C@H](N2C[C@@H]4CC(F)(F)[C@@H]4C2)CC3)c2scc(C(=O)O)c2n1 (single isomer, unassigned) [Compound 146]
> 5.30 | > 5.30 | > 7.00 | Cc1cc(-c2cc(Cl)ccc2OCCn2c(C)nc3c(c2=O)CC(N2CCC4(CC2)CC4)CC3)c2scc(C(=O)O)c2n1 (stereo not drawn) [Compound 192]
< 4.70 | < 4.70 | > 7.00 | Cc1cc(-c2cc(Cl)ccc2OCCn2c(C)nc3c(c2=O)CC(N(C)Cc2ccnc(N)n2)CC3)c2scc(C(=O)O)c2n1 (stereo not drawn) [Compound 158, 7-(2-(2-(6-(((2-aminopyrimidin-4-yl)methyl)(methyl)amino)-2-methyl-4-oxo-5,6,7,8-tetrahydroquinazolin-3(4H)-yl)ethoxy)-5-chlorophenyl)-5-methylthieno[3,2-b]pyridine-3-carboxylic acid]
> 5.30 | > 5.30 | > 7.00 | Cc1cc(-c2cc(Cl)ccc2OCCn2c(C)nc3c(c2=O)CC(N(C)Cc2cccc(OC(F)(F)F)c2)CC3)c2scc(C(=O)O)c2n1 (stereo not drawn) [Compound 222]
